Measurements as given in patent publication US8124778B2, “Tricyclic inhibitors of fatty acid amide hydrolase” (The Scripps Research Institute, priority 2007, dated 2012).

Biological target: T1, purified recombinant rat FAAH (Rattus norvegicus, UniProt P97612)
T1 construct: The truncated rat FAAH (rFAAH) was expressed in E. coli and purified as described; made in house; host or cells: E. coli
T1 sequence (P97612 30-579 limits assumed): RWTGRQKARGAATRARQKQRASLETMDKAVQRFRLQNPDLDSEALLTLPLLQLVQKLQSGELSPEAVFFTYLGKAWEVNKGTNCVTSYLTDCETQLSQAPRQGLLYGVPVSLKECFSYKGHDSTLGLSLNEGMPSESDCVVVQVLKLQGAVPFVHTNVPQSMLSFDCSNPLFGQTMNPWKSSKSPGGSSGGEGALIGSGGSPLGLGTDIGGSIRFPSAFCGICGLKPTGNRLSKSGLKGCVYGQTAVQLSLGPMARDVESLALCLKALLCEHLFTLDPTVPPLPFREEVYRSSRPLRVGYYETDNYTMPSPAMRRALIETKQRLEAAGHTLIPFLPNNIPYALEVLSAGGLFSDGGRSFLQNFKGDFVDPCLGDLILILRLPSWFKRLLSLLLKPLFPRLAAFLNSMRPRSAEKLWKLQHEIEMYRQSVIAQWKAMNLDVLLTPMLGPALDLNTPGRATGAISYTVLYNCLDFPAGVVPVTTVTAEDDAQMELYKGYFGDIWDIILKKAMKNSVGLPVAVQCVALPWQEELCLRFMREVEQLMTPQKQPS
Test: FAAH inhibition enzyme assay (14C-oleamide hydrolysis, Dixon plot)
Assay type: biochemical
Details: rat FAAH
Method: Enzyme assays were performed at 20-23° C. with purified recombinant rat FAAH expressed in E. coli (Patricelli, M. P.; Lashuel, H. A.; et al. Biochemistry 1998, 37, 15177-15187) (unless indicated otherwise) or with solubilized COS-7 membrane extracts from cells transiently transfected with human FAAH cDNA (Giang, D. K.; Cravatt, B. F. Proc. Natl. Acad. Sci. U.S.A. 1997, 94, 2238-2242) (where specifically indicated) in a buffer of 125 mM Tris/1 mM EDTA/0.2% glycerol/0.02% Triton X-100/0.4 mM Hepes, pH 9.0 buffer (Patricelli, M. P.; Patterson, J. P.; et al. Bioorg. Med. Chem. Lett. 1998, 8, 613-618). The initial rates of hydrolysis (≦10-20% reaction) were monitored using enzyme concentrations at least three times below the measured Ki by following the breakdown of ^14C-oleamide and Ki's (standard deviations are provided in Supporting Information tables) were established as described (Dixon plot) (Boger, D. L.; Sato, H.; et al. Proc. Natl. Acad. Sci. U.S.A. 2000, 97, 5044-5049). Lineweaver-Burk analysis previously established reversible, competitive inhibition (Boger, D. L.; Miyauchi, H.; et al. J. Med. Chem. 2005, 48, 1849-1856).
FAAH Inhibition. ^14C-labeled oleamide was prepared from ^14C-labeled oleic acid as described (Cravatt, B. F.; et al. Science 1995, 268, 1506-1509). The truncated rat FAAH (rFAAH) was expressed in E. coli and purified as described (Patricelli, M. P.; Lashuel, H. A.; et al. Biochemistry 1998, 37, 15177-15187). The purified recombinant rFAAH was used in the inhibition assays unless otherwise indicated. The full-length human FAAH (hFAAH) was expressed in COS-7 cells as described (Giang, D. K.; Cravatt, B. F. Proc. Natl. Acad. Sci. U.S.A. 1997, 94, 2238-2242), and the lysate of hFAAH-transfected COS-7 cells was used in the inhibition assays where explicitly indicated.
The inhibition assays were performed as described (Cravatt, B. F.; et al. Science 1995, 268, 1506-1509). In brief, the enzyme reaction was initiated by mixing 1 nM of rFAAH (800, 500, or 200 pM rFAAH for inhibitors with Ki≦1-2 nM) with 10 μM of ^14C-labeled oleamide in 500 μL of reaction buffer (125 mM TrisCl, 1 mM EDTA, 0.2% glycerol, 0.02% Triton X-100, 0.4 mM Hepes, pH 9.0) at room temperature in the presence of three different concentrations of inhibitor. The enzyme reaction was terminated by transferring 20 μL of the reaction mixture to 500 μL of 0.1 N HCl at three different time points. The ^14C-labeled oleamide (substrate) and oleic acid (product) were extracted with EtOAc and analyzed by TLC as detailed (Cravatt, B. F.; et al. Science 1995, 268, 1506-1509). The Ki of the inhibitor was calculated using a Dixon plot as described (standard deviations are provided in the Supporting Information tables) (Boger, D. L.; Sato, H.; et al. Proc. Natl. Acad. Sci. U.S.A. 2000, 97, 5044-5049). Lineweaver-Burk analysis was performed as described confirming competitive, reversible inhibition (Boger, D. L.; Miyauchi, H.; et al. J. Med. Chem. 2005, 48, 1849-1856).

| FAAH inhibitory potency (in words) | SMILES |
| --- | --- |
| reductions in the Ki | O=C(CCCCCCc1ccccn1)c1ncc(-c2ccccn2)o1 [5e, 1-Oxo-1-[5-(2-pyridyl)oxazol-2-yl]-7-(2-pyridyl)heptane] |
| reductions in the Ki | O=C(CCCCCCc1cccnc1)c1ncc(-c2ccccn2)o1 [5f, 1-Oxo-1-[5-(2-pyridyl)oxazol-2-yl]-7-(3-pyridyl)heptane] |
